Where a SMILES comes first, the peptide text is derived from it.
Each compound was assayed against T1, Interleukin-23 receptor (Homo sapiens, UniProt Q5VWK5) (assay: Inhibition of interleukin-23 binding to human interleukin-23 receptor incubated for 2 hrs by competitive binding ELISA).
T1 sequence (Q5VWK5 whole entry): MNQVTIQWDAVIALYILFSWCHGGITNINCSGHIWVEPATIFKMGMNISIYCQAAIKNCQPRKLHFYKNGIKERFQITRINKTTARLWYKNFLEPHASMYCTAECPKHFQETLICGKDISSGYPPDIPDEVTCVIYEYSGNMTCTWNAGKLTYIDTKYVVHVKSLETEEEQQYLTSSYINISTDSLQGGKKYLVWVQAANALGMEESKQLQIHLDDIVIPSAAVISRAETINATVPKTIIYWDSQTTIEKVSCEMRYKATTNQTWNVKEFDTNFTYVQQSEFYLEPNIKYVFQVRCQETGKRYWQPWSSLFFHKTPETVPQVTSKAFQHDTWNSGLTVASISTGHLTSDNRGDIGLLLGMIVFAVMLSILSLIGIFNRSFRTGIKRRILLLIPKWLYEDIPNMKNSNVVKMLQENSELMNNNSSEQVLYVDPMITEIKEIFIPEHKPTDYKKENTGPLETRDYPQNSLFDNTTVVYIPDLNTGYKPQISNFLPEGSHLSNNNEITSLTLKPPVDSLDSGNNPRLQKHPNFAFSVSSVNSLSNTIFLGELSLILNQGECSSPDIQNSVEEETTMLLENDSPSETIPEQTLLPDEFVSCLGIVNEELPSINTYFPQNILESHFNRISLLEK

Structure (SMILES)	IC50
CC(C)[C@H](NC(=O)[C@H](Cc1c[nH]c2ccccc12)NC(=O)[C@H](CC(=O)O)NC(=O)[C@H](C)NC(=O)[C@H](CS)NC(=O)COCCN)C(=O)N[C@@H](CS)C(=O)N[C@@H](Cc1ccc(O)cc1)C(=O)N[C@@H](Cc1c[nH]c2ccccc12)C(=O)N[C@@H](Cc1cnc[nH]1)C(=O)N[C@H](C(=O)N[C@@H](Cc1ccccc1)C(=O)NCC(=O)O)[C@@H](C)O	> 1000 nM
CC(C)[C@H](NC(=O)[C@H](Cc1c[nH]c2ccccc12)NC(=O)[C@H](CC(=O)O)NC(=O)[C@H](CS)NC(=O)[C@H](C)N)C(=O)N[C@@H](CS)C(=O)N[C@@H](Cc1ccc(O)cc1)C(=O)N[C@@H](Cc1c[nH]c2ccccc12)C(=O)N[C@@H](Cc1cnc[nH]1)C(=O)N[C@H](C(=O)N[C@@H](Cc1ccccc1)C(=O)NCC(N)=O)[C@@H](C)O	> 1000 nM
CC(=O)N[C@@H](CS)C(=O)N[C@@H](CCC(N)=O)C(=O)N[C@@H](CC(=O)O)C(=O)N[C@@H](Cc1c[nH]c2ccccc12)C(=O)N[C@@H](CCC(N)=O)C(=O)N[C@@H](CS)C(=O)N[C@@H](Cc1ccc(O)cc1)C(=O)N[C@@H](Cc1c[nH]c2ccccc12)C(=O)N[C@@H](CCCNC(=N)N)C(=O)N[C@@H](CCC(=O)O)C(=O)N[C@@H](CC(N)=O)C(=O)NCC(=O)NCCOCC(=O)N[C@H](CCCCN)C(N)=O	< 500 nM
CC(C)[C@H](NC(=O)[C@@H]1Cc2ccccc2CN1C(=O)[C@H](CC(=O)O)NC(=O)[C@H](C)NC(=O)[C@@H](N)CS)C(=O)N[C@@H](CS)C(=O)N[C@@H](Cc1ccc(O)cc1)C(=O)N[C@@H](Cc1c[nH]c2ccccc12)C(=O)N[C@@H](Cc1cnc[nH]1)C(=O)N[C@H](C(=O)N[C@@H](Cc1ccccc1)C(=O)NCC(N)=O)[C@@H](C)O	> 1000 nM
CC(C)[C@H](NC(=O)[C@H](Cc1cnc[nH]1)NC(=O)[C@H](Cc1c[nH]c2ccccc12)NC(=O)[C@H](Cc1ccc(O)cc1)NC(=O)[C@H](CS)NC(=O)[C@H](CCC(=O)O)NC(=O)[C@H](Cc1c[nH]c2ccccc12)NC(=O)[C@H](CC(N)=O)NC(=O)CNC(=O)[C@@H](N)CS)C(=O)N[C@@H](Cc1ccc(O)cc1)C(=O)NCC(N)=O (H-CGNWECYWHVYG-NH2)	> 1000 nM

Now from value to compound:

IC50	Structure (SMILES)
> 1000 nM	CC(=O)N[C@@H](CS)C(=O)N[C@@H](C)C(=O)N[C@@H](CC(=O)O)C(=O)N[C@@H](Cc1c[nH]c2ccccc12)C(=O)N[C@H](C(=O)N[C@@H](CS)C(=O)N[C@@H](Cc1ccc(O)cc1)C(=O)N[C@@H](Cc1c[nH]c2ccccc12)C(=O)N[C@@H](Cc1cnc[nH]1)C(=O)N[C@@H](CCCCN)C(=O)N[C@@H](Cc1ccccc1)C(=O)NCC(=O)O)C(C)C
1000 to 10000 nM	CC(=O)NC1CC/C=C\CCCC(C(=O)N[C@@H](Cc2ccc(O)cc2)C(=O)N[C@@H](Cc2c[nH]c3ccccc23)C(=O)N[C@@H](CCCNC(=N)N)C(=O)N[C@@H](CCCCN)C(=O)N[C@@H](Cc2ccccc2)C(=O)NCC(=O)NCCOCC(=O)N[C@H](CCCCN)C(N)=O)NC(=O)[C@H](CCC(N)=O)NC(=O)[C@H](Cc2c[nH]c3ccccc23)NC(=O)[C@H]([C@@H](C)O)NC(=O)[C@H](CCCNC(=N)N)NC1=O (some centres undefined)
100 to 1000 nM	CC(=O)NC1CCC/C=C\CC(C(=O)N[C@@H](Cc2ccc(O)cc2)C(=O)N[C@@H](Cc2c[nH]c3ccccc23)C(=O)N[C@@H](CCCNC(=N)N)C(=O)N[C@@H](CCCCN)C(=O)N[C@@H](Cc2ccccc2)C(=O)NCC(=O)NCCOCC(=O)N[C@H](CCCCN)C(N)=O)NC(=O)[C@H](CCC(N)=O)NC(=O)[C@H](Cc2c[nH]c3ccccc23)NC(=O)[C@H]([C@@H](C)O)NC(=O)[C@H](CCCNC(=N)N)NC1=O (some centres undefined)
< 500 nM	CC(=O)N[C@@H](CS)C(=O)N[C@@H](CCC(N)=O)C(=O)N[C@H](C(=O)N[C@@H](Cc1c[nH]c2ccccc12)C(=O)N[C@@H](CCC(N)=O)C(=O)N[C@@H](CS)C(=O)N[C@@H](Cc1ccc(O)cc1)C(=O)N[C@@H](Cc1c[nH]c2ccccc12)C(=O)N[C@@H](CCONC(=N)N)C(=O)N[C@@H](CCC(=O)O)C(=O)N[C@@H](CC(N)=O)C(=O)NCC(=O)NCCOCC(=O)N[C@H](CCCCN)C(N)=O)[C@@H](C)O

Source: ChEMBL document CHEMBL4417631, “Oral peptide inhibitors of interleukin-23 receptor and their use to treat inflammatory bowel diseases” (2017)
